Measured values: patent US11160885B2, “Phospholipid composition and microbubbles and emulsions formed using same” (Microvascuar Therapeutics LLC, priority 2014, dated 2021)

Columns and labels:
[1] = Ionization of DPPA as a function of pH; assay type: physicochemical
From the text: As those skilled in the art will appreciate, DPPA comprises two acidic protons. The pKa for the second acidic proton is about 7.9. FIG. 1 graphically depicts the ionization of DPPA as a function of pH. Curve 110 recites the percent of mono-anion 6 present, and curve 120 recites the percent of di-anion 7 present. At a pH of about 4 and higher, the combined percentages of mono-anion 6 and di-anion 7 total 100.
At a pH of about 7.9, DPPA comprises about 50 percent mono-anion 7 and about 50 percent di-anion 8. At a pH of about 7.0, DPPA comprises about 85 percent mono-anion 7 and about 15 percent di-anion 8.

[2] = cited from earlier work

## CCCCCCCCCCCCCCCC(=O)OC[C@H](COP(=O)(O)O)OC(=O)CCCCCCCCCCCCCCC [DPPA, dipalmitoylphosphatidic acid]
[1]; pH of about 7.0
  percent di-anion: about 15%
  percent mono-anion: about 85%
[1]; pH of about 7.9
  percent di-anion: about 50%
  percent mono-anion: about 50%
[2]
  pKa for the second acidic proton: about 7.9
